From paper PMC7582905, “Effect of Disulfide Cyclization of Ultrashort Cationic Lipopeptides on Antimicrobial Activity and Cytotoxicity” (International Journal of Molecular Sciences, 2020)
Values after ≈ are worked out from the molar mass of the structure shown. Where a SMILES comes first, the peptide text is derived from it. Bridges are numbered along the chain shown (N, C = ends). The star is where a group is joined. Palmitoyl = CCCCCCCCCCCCCCCC(=O)*

Tests used:
[1] = tested on: Candida glabrata ATCC 15126; type: cell-based; details: ATCC 15126, 24 h
Description: (§1) The Staphylococcus aureus ATCC 25923, Staphylococcus epidermidis ATCC 14990, Escherichia coli ATCC 25922, Pseudomonas aeruginosa ATCC 9027, Candida albicans ATCC 10231, Candida glabrata ATCC 15126, Candida lipolytica PCM 2680-FY, and Candida tropicalis PCM 2709-FY strains were acquired from the Polish Collection of Microorganisms (PCM, Polish Academy of Sciences, Wrocław, Poland) and from the American Type Culture Collection (ATCC). All the strains were stored at −80 °C in Roti-Store cryo vials and before the tests were transferred into fresh Mueller–Hinton broth (MHB, Biocorp, Warsaw, Poland) for bacteria or RPMI-1640 (Sigma-Aldrich, Steinheim, Germany) for fungi and incubated for 24 h at 37 °C. Then, the cultures were seeded on Mueller–Hinton agar (BioMaxima, Lublin, Poland) or Sabouraud dextrose agar (SDA, BioMaxima, Lublin, Poland) plates, respectively, and incubated as just mentioned. These agar cultures were used for further microbiological assays. Cell densities for all assays were adjusted spectrophotometrically (Multiskan GO Microplate Spectrophotometer, Thermo Fisher Scientific, Vantaa, Finland) at 600 and 660 nm for bacteria and fungi, respectively.
(§2) The assay was performed to evaluate the effect of the lipopeptides in preventing biofilm formation. The preparation of inoculums was followed by a ca. 500-fold dilution of the 24 h cultures of microorganisms. Briefly, 50 μL of the compounds in the concentration range, diluted in appropriate medium, were prepared on 96-well polystyrene flat-bottom plates. Subsequently, the 50 μL of the bacterial/fungal inoculums were added to reach the same microbial density as that in the MBEC assay. After 24 h of incubation at 37 °C, the wells were rinsed three times with PBS and the fresh media with resazurin (4 g/L) were added. The MBICs were read after 1 h. All experiments were conducted in triplicate.

[2] = tested on: Escherichia coli ATCC 25922; type: cell-based; details: ATCC 25922, 24 h
Description: as §1, §2

[3] = tested on: Pseudomonas aeruginosa ATCC 9027; type: cell-based; details: ATCC 9027, 24 h
Description: as §1, §2

[4] = tested on: Staphylococcus epidermidis ATCC 14990; type: cell-based; details: ATCC 14990, 24 h
Description: as §1, §2

[5] = tested on: Candida lipolytica PCM 2680-FY; type: cell-based; details: 24 h
Description: as §1, §2

[6] = tested on: Candida tropicalis PCM 2709-FY; type: cell-based; details: PCM 2709-FY, 24 h
Description: as §1, §2

[7] = tested on: Staphylococcus aureus ATCC 25923; type: cell-based; details: ATCC 25923, 24 h
Description: as §1, §2

[8] = tested on: Candida albicans ATCC 10231; type: cell-based; details: ATCC 10231, 24 h
Description: as §1, §2

[9] = tested on: Candida glabrata ATCC 15126; type: cell-based; details: ATCC 15126, 24 h; remark: listed apart in the source
Description: as §1
(§3) The MICs were determined by broth microdilution method according to the Clinical and Laboratory Standard Institute guidelines For this purpose, initial inoculums of bacteria (5 × 10^5 CFU/mL) in MHB and yeasts (2 × 10^3 CFU/mL) in RPMI-1640 with 2% D-glucose were exposed to the ranging concentration of lipopeptides (0.5–256 μg/mL) and incubated at 37 °C for 18 h and 24 h, respectively. The experiments were conducted on 96-well microtiter polystyrene plates. The growth was assessed visually after incubation and the MIC was assumed as the lowest peptide concentration at which a noticeable growth of microorganisms was inhibited. All experiments were conducted in triplicate.

[10] = tested on: Escherichia coli ATCC 25922; type: cell-based; details: ATCC 25922, 18 h
Description: as §1, §3

[11] = tested on: Pseudomonas aeruginosa ATCC 9027; type: cell-based; details: ATCC 9027, 18 h
Description: as §1, §3

[12] = tested on: Staphylococcus epidermidis ATCC 14990; type: cell-based; details: ATCC 14990, 18 h
Description: as §1, §3

[13] = tested on: Candida lipolytica PCM 2680-FY; type: cell-based; details: 24 h; remark: listed apart in the source
Description: as §1, §3

[14] = tested on: Candida tropicalis PCM 2709-FY; type: cell-based; details: PCM 2709-FY, 24 h; remark: listed apart in the source
Description: as §1, §3

[15] = tested on: Candida albicans ATCC 10231; type: cell-based; details: ATCC 10231, 24 h; remark: listed apart in the source
Description: as §1, §3

[16] = RP-HPLC determination of peptide hydrophobicity; type: physicochemical; details: 0.1% TFA; for reduced retention time t’R: RP-HPLC retention as measure of hydrophobicity, Waters X-Bridge Shield RP-18 3.0 × 100 mm, 3.5 μm, linear 20–65% acetonitrile in water over 30 min, 0.5 mL/min, 25.0 °C, UV 214 nm, 1 g/L, triplicate
Description: The peptides were analyzed by RP-HPLC to determine relative hydrophobicity vs. retention time of each compound. In general, more hydrophobic lipopeptides will elute later than hydrophilic ones. Using this simple rule enables comparison of hydrophobicity by reduced retention times (t’R) and differences in retention time between the cyclic analog and its linear parent lipopeptide (Table 1). It can be deduced that the presence of cystine moiety has led to increased hydrophobicity. All cyclic lipopeptides are more hydrophobic than their linear counterparts but the effect of disulfide cyclization on retention is different in each pair. The highest increase in retention was noticed for the shortest lipopeptides L1 (C16-KKK-NH2) and C1 (C16-CKKKC-NH2). The differences between lipopeptides with one arginine residue indicate that its position is crucial for retention and therefore hydrophobicity. To learn how the arginine position affects hydrophobicity, the retention time of compound L2 (C16-KKKK-NH2) or C2 (C16-CKKKKC-NH2) was subtracted from that of the lipopeptides with one arginine residue, linear (L3, L4, L5, L6) or cyclic (C3, C4, C5, C6), respectively. In Figure 2 the effect of arginine position on retention time is related to unsubstituted lipopeptide.
To determine peptide hydrophobicity, a Waters Alliance e2695 system with a Waters 2998 PDA Detector (software-Empower 3, Waters, Milford, MA, USA) was used. All analyses were carried out on a Waters X-Bridge Shield RP-18 column (3.0 × 100 mm, 3.5 μm particle size, 130 Å pore size). The Shield Technology column with embedded polar groups was used to minimize interactions of unreacted silanol groups with basic lipopeptides. The peptides were dissolved in water (0.1% TFA, v/v) up to a concentration of 1 g/L. UV detection at 214 nm was used, and samples (10 μL) were eluted with a linear 20–65% acetonitrile gradient in deionized water over 30 min at 25.0 ± 0.1 °C. The mobile phase flow rate was 0.5 mL/min. Both eluents contained 0.1% (v/v) of TFA. Each peptide sample was analyzed in triplicate. Maximum standard deviation and coefficient of variation were 0.042 and 0.25%, respectively.

Structure (SMILES)	MBIC C. glabrata [1] [µg/mL]	MBIC E. coli [2] [µg/mL]	MBIC P. aeruginosa [3] [µg/mL]	MBIC S. epidermidis [4] [µg/mL]	MBIC C. lipolytica [5] [µg/mL]	MBIC C. tropicalis [6] [µg/mL]	MBIC S. aureus [7] [µg/mL]	MBIC C. albicans [8] [µg/mL]	MIC C. glabrata [9] [µg/mL]	MIC E. coli [10] [µg/mL]	MIC P. aeruginosa [11] [µg/mL]	MIC S. epidermidis [12] [µg/mL]	MIC C. lipolytica [13] [µg/mL]	MIC C. tropicalis [14] [µg/mL]	MIC C. albicans [15] [µg/mL]	reduced retention time t’R [16] [min]	∆tR ([16]; tR of cyclic analog − tR of parent lipopeptide, RP-HPLC, RP-18, 20–65% acetonitrile over 30 min)
CCCCCCCCCCCCCCCC(=O)N[C@@H](CCCNC(=N)N)C(=O)N[C@@H](CCCCN)C(=O)N[C@@H](CCCCN)C(=O)N[C@@H](CCCCN)C(N)=O [L3, C16-RKKK-NH2] (Palmitoyl-RKKK-NH2)	64	32	64	16	16	16	32	64	64 (≈ 80.4 µM)	8 (≈ 10 µM)	32 (≈ 40.2 µM)	8 (≈ 10 µM)	8 (≈ 10 µM)	8 (≈ 10 µM)	8 (≈ 10 µM)	15.21	–
CCCCCCCCCCCCCCCC(=O)N[C@H]1CSSC[C@@H](C(N)=O)NC(=O)[C@H](CCCCN)NC(=O)[C@H](CCCCN)NC(=O)[C@H](CCCNC(=N)N)NC(=O)[C@H](CCCCN)NC1=O [C4, C16-CKRKKC-NH2] (Palmitoyl-CKRKKC-NH2; disulfide 1-6)	16	32	32	8	4	4	16	8	4 (≈ 4 µM)	32 (≈ 32 µM)	256 (≈ 256 µM)	8 (≈ 8 µM)	1 (≈ 1 µM)	2 (≈ 2 µM)	2 (≈ 2 µM)	16.10	+0.92 min
